In patent publication US20230135635A1, “INHIBITORS OF ULK1/2 AND METHODS OF USING SAME” (SALK INSTITUTE FOR BIOLOGICAL STUDIES, priority 2020, published 2023):
pIC50: −log10 of the molar value.

Assays:
NanoLuc®-ULK1 Fusion = target: T1, NanoLuc®-ULK1 Fusion (Homo sapiens, UniProt O75385); test: ULK1 NanoBRET assay in HEK293T cells; assay type: cell-based
T1 construct: host or cells: HEK293T
T1 sequence (O75385 1-1050): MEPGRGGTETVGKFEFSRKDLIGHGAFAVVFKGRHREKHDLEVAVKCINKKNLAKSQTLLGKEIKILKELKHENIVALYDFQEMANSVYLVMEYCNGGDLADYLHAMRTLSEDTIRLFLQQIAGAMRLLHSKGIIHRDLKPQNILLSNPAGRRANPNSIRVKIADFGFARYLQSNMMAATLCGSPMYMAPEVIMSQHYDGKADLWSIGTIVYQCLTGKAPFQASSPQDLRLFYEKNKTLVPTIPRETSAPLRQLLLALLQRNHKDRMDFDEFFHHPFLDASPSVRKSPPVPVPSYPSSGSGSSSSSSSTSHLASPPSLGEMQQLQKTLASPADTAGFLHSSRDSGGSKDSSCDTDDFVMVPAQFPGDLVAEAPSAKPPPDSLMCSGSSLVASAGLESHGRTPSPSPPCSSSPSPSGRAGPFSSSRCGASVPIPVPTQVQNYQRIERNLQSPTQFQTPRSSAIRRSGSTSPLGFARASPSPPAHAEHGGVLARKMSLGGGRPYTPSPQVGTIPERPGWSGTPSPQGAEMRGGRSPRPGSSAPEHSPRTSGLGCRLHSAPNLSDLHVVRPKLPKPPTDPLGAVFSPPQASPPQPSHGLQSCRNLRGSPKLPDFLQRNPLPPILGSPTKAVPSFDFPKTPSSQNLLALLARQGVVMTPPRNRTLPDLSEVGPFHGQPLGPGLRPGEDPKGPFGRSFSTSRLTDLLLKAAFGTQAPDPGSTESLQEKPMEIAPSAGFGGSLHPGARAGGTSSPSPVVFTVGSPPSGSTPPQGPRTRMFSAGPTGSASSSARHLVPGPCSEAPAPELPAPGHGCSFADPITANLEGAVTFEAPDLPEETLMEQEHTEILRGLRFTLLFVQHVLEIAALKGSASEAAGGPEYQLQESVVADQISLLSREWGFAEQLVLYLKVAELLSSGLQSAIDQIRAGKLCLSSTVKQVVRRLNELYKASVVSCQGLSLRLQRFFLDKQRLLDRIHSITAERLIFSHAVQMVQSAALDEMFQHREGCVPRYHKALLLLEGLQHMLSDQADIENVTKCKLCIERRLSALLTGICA
Experimental: IC50s were also measured by ULK1 NanoBRET assay according to the following protocol: Human embryonic kidney cells (HEK293T) were transfected with NanoLuc®-ULK1 Fusion Vector (Promega #NV2211) using jetPRIME transfection reagent (Polyplus Transfection #114-15). Following 24 h, cells were trypsinized and resuspended in Opti-MEM® I (1×), Reduced Serum Medium (Gibco, #11058-021). Approximately, 7,000 cells per well (in 34 μL total volume) were replated into non-binding surface 384 well plates. Complete NanoBRET 20× Tracer K-5 reagent was prepared according to the manufacturer's directions and 2 μL were added to each well of the 384 plate (assay plate). The assay plate was mixed on an orbital shaker for 15 seconds at 700 rpm. Compounds were serially diluted at 200× final concentration in 100% DMSO, then diluted to 10× final concentration in assay media (Opti-MEM® I, Reduced Serum Medium). Next, 4 μL 10× test compounds were added to each well of the assay plate, followed by mixing at 700 rpm for 15 seconds. The assay plate was incubated for 2 h in a 37 C incubator with 5% CO2 and then equilibrated to RT for 15 min. The 3× Complete Substrate plus Inhibitor Solution was prepared according to the manufacturer's directions with a concentration of Extracellular NanoLuc® Inhibitor of 60 μM to be used at a working concentration of […]. The 3× Complete Substrate plus Inhibitor Solution was mixed and 20 μL per well was added to the assay plate and incubated at RT for 2-3 min. Donor emission wavelength (450 nm) and acceptor emission wavelength (610 nm) were measured using an assay compatible luminometer (see manufacturer's specifications).

[1] = target: T2, recombinant human ULK1 protein (1-649) (Homo sapiens, UniProt O75385); test: ULK1 inhibition assay (ADP Glo); assay type: biochemical
T2 construct: recombinant human ULK1 protein (1-649, SignalChem #U01-11G); purchased SignalChem U01-11G
T2 sequence (O75385 1-649): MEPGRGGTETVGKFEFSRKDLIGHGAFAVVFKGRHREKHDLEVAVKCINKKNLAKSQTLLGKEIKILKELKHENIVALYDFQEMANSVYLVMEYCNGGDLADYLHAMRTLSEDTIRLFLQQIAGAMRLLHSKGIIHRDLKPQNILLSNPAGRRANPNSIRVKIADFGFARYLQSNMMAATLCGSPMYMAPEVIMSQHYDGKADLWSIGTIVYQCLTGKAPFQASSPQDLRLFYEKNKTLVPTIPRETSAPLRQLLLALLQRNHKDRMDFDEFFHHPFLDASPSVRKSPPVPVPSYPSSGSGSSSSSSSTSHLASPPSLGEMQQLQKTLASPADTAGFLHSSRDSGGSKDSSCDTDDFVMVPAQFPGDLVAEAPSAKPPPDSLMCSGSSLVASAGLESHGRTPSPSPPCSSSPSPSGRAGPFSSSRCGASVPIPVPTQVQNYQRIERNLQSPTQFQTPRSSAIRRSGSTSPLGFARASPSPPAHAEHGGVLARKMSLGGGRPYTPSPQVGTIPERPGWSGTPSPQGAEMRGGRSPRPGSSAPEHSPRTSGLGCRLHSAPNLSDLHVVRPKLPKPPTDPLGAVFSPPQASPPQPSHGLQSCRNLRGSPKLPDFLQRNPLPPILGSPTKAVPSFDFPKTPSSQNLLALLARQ
How it was run: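 Recombinant ULK1 (2 ug/mL) phosphorylated myelin basic protein (80 ug/mL) at 25 uM ATP; ADP formed was detected by ADP-Glo after 1 h. Compounds ran in triplicate, 16-dose 3-fold serial dilution from 30 uM, to give IC50.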

[2] = Table 1, 25 uM ATP, MBP substrate, one hour

| Compound | pIC50 (NanoLuc®-ULK1 Fusion; Table 1, 2 h incubation) | pIC50 [1, 2] | pIC50 (NanoLuc®-ULK1 Fusion; Table 3) | pIC50 ([1]; Table 3) |
| --- | --- | --- | --- | --- |
| CC(=O)N1CCc2cc(Nc3ncc(C(F)(F)F)c(NC4CC4)n3)ccc2C1 [Compound A19] | > 7.00 | > 9.00 |  |  |
| O=C(CN1CCc2cc(Nc3ncc(C(F)(F)F)c(NC4CC4)n3)ccc2C1)N1CCOCC1 [Compound A47] | > 7.00 | > 9.00 |  |  |
| FC(F)(F)c1cnc(Nc2ccc3c(c2)CCN(Cc2c[nH]cn2)C3)nc1NC1CC1 [Compound A51] | > 7.00 | > 9.00 |  |  |
| FC(F)(F)c1cnc(Nc2ccc3c(c2)CNC3)nc1NC1CC1 [Compound A55] | > 7.00 | > 9.00 |  |  |
| C#CCC(=O)N1CCc2cc(Nc3ncc(C(F)(F)F)c(NC4CC4)n3)ccc2C1 [Compound A84] | < 7.00 | 8.00 to 9.00 |  |  |
| CNC(=O)c1ccccc1Nc1nc(Nc2ccc3c(c2)CCN(CCOC)C3)ncc1Cl [Compound A117, 2-((5-Chloro-2-((2-(2-methoxyethyl)-1,2,3,4-tetrahydroisoquinolin-6-yl)amino)pyrimidin-4-yl)amino)-N-methylbenzamide] | > 7.00 | 8.00 to 9.00 |  |  |
| CNC(=O)c1ccccc1Nc1nc(Nc2ccc3c(c2)CCN(CCOC)C3)ncc1Br [Compound A118, 2-((5-Bromo-2-((2-(2-methoxyethyl)-1,2,3,4-tetrahydroisoquinolin-6-yl)amino)pyrimidin-4-yl)amino)-N-methylbenzamide] | > 7.00 | 8.00 to 9.00 |  |  |
| CNC(=O)c1ccccc1Nc1nc(Nc2ccc3c(c2)CCN(CCOC)C3)ncc1C(F)(F)F [Compound A119, 2-((2-((2-(2-Methoxyethyl)-1,2,3,4-tetrahydroisoquinolin-6-yl)amino)-5-(trifluoromethyl)pyrimidin-4-yl)amino)-N-methylbenzamide] | > 7.00 | 8.00 to 9.00 |  |  |
| CNC(=O)c1ccccc1Nc1nc(Nc2ccc3c(c2)CCNC3)ncc1C(F)(F)F [Compound A120, N-Methyl-2-((2-((1,2,3,4-tetrahydroisoquinolin-6-yl)amino)-5-(trifluoromethyl)pyrimidin-4-yl)amino)benzamide] | > 7.00 | 8.00 to 9.00 |  |  |
| COCCN1CCc2cc(Nc3ncc(C(F)(F)F)c(NC(C)C)n3)ccc2C1 [Compound A122, N^4-Isopropyl-N^2-(2-(2-methoxyethyl)-1,2,3,4-tetrahydroisoquinolin-6-yl)-5-(trifluoromethyl)pyrimidine-2,4-diamine] | > 7.00 | 8.00 to 9.00 |  |  |

Other lines, results leading:

| pIC50 (NanoLuc®-ULK1 Fusion; Table 1, 2 h incubation) | pIC50 [1, 2] | pIC50 (NanoLuc®-ULK1 Fusion; Table 3) | pIC50 ([1]; Table 3) | Compound |
| --- | --- | --- | --- | --- |
|  |  | < 7.00 | 7.00 to 8.30 | CNC(=O)c1ccccc1Nc1nc(Nc2ccc3c(c2)OCCO3)ncc1Br [Compound E4, 2-((5-Bromo-2-((2,3-dihydrobenzo[b][1,4]dioxin-6-yl)amino)pyrimidin-4-yl)amino)-N-methylbenzamide] |
|  |  | < 7.00 | 7.00 to 8.30 | CNC(=O)c1ccccc1Nc1nc(Nc2ccc3c(c2)OCO3)ncc1Br [Compound E5, 2-((2-(Benzo[d][1,3]dioxol-5-ylamino)-5-bromopyrimidin-4-yl)amino)-N-methylbenzamide] |
|  |  | < 7.00 | 7.00 to 8.30 | CNC(=O)c1ccccc1Nc1nc(Nc2ccc3c(c2)OCO3)ncc1C(F)(F)F [Compound E6, 2-((2-(Benzo[d][1,3]dioxol-5-ylamino)-5-(trifluoromethyl)pyrimidin-4-yl)amino)-N-methyl benzamide] |
|  |  | < 7.00 | 7.00 to 8.30 | CNC(=O)c1ccccc1Nc1nc(Nc2ccc3c(c2)OCCO3)ncc1C(F)(F)F [Compound E7, 2-((2-((2,3-Dihydrobenzo[b][1,4]dioxin-6-yl)amino)-5-(trifluoromethyl)pyrimidin-4-yl)amino)-N-methylbenzamide] |
|  |  | > 7.00 |  | CNC(=O)c1ccccc1Nc1nc(Nc2cc(OC)c(OC)c(OC)c2)ncc1C#N [Compound E9, 2-((5-cyano-2-((3,4,5-trimethoxyphenyl)amino)pyrimidin-4-yl)amino)-N-methylbenzamide] |
|  |  | < 7.00 |  | CNC(=O)c1ccccc1Nc1nc(Nc2cc(OC)c(OC)c(OC)c2)ncc1C1CC1 [Compound E10, 2-((5-Cyclopropyl-2-((3,4,5-trimethoxyphenyl)amino)pyrimidin-4-yl)amino)-N-methyl-benzamide] |
|  |  | < 7.00 |  | CNC(=O)c1ccccc1Nc1nc(Nc2cc(OC)c(OC)c(OC)c2)ncc1C [Compound E11, N-Methyl-2-((5-methyl-2-((3,4,5-trimethoxyphenyl)amino)pyrimidin-4-yl)amino)benzamide] |
|  |  | < 7.00 |  | CNC(=O)c1ccccc1Nc1nc(Nc2cc(OC)c(OC)c(OC)c2)ncc1F [Compound E12, 2-((5-Fluoro-2-((3,4,5-trimethoxyphenyl)amino)pyrimidin-4-yl)amino)-N-methylbenzamide] |
|  |  | > 7.00 |  | CNC(=O)c1ccccc1Nc1nc(Nc2cc(OC)c(OC)c(OC)c2)ncc1I [Compound E13, 2-((5-iodo-2-((3,4,5-trimethoxyphenyl)amino)pyrimidin-4-yl)amino)-N-methylbenzamide] |
